Laboratory results taken from patent US7138361B2, “Herbicidal heterocycles” (E. I. du Pont de Nemours and Company, priority 2000, dated 2006).

How the values were obtained:
Type in all cases: in vivo
[1] = test system: Surinam grass (Brachiaria decumbens); test: Test B postemergence
How it was run: (§1)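 Visual injury scores, 0 = no effect to 100 = complete control, assigned against controls after 13 to 15 days in the greenhouse. Compounds formulated in non-phytotoxic solvent plus surfactant and applied to soil after planting (pre) or onto foliage of 1- to 4-leaf plants (post).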

[2] = test system: barnyardgrass (Echinochloa crus-galli); test: Test B postemergence
How it was run: as §1

[3] = test system: blackgrass (Alopecurus myosuroides); test: Test B postemergence
How it was run: as §1

[4] = test system: cocklebur (Xanthium strumarium); test: Test B postemergence
How it was run: as §1

[5] = test system: corn (Zea mays); test: Test B postemergence
How it was run: as §1

[6] = test system: crabgrass (Digitaria sanguinalis); test: Test B postemergence
How it was run: as §1

[7] = test system: giant foxtail (Setaria faberii); test: Test B postemergence
How it was run: as §1

[8] = test system: lambsquarters (Chenopodium album); test: Test B postemergence
How it was run: as §1

[9] = test system: morning glory (Ipomoea hederacea); test: Test B postemergence
How it was run: as §1

[10] = test system: pigweed (Amaranthus retroflexus); test: Test B postemergence
How it was run: as §1

[11] = test system: velvetleaf (Abutilon theophrasti); test: Test B postemergence
How it was run: as §1

[12] = test system: wheat (Triticum aestivum); test: Test B postemergence
How it was run: as §1

[13] = test system: wild oat (Avena fatua); test: Test B postemergence
How it was run: as §1

[14] = test system: Surinam grass (Brachiaria decumbens); test: Test B preemergence
How it was run: as §1

[15] = test system: barnyardgrass (Echinochloa crus-galli); test: Test B preemergence
How it was run: as §1

[16] = test system: cocklebur (Xanthium strumarium); test: Test B preemergence
How it was run: as §1

[17] = test system: corn (Zea mays); test: Test B preemergence
How it was run: as §1

[18] = test system: crabgrass (Digitaria sanguinalis); test: Test B preemergence
How it was run: as §1

[19] = test system: giant foxtail (Setaria faberii); test: Test B preemergence
How it was run: as §1

[20] = test system: lambsquarters (Chenopodium album); test: Test B preemergence
How it was run: as §1

[21] = test system: morning glory (Ipomoea hederacea); test: Test B preemergence
How it was run: as §1

[22] = test system: pigweed (Amaranthus retroflexus); test: Test B preemergence
How it was run: as §1

[23] = test system: rice (Oryza saliva); test: Test B preemergence
How it was run: as §1

[24] = test system: velvetleaf (Abutilon theophrasti); test: Test B preemergence
How it was run: as §1

[25] = test system: barnyardgrass (Echinochloa crus-galli); test: Test C flooded paddy test; settings: for Barnyardgrass plant response rating: Flooded Paddy, scale 0 to 100, 0 no effect, 100 complete control; for Plant response rating, Barnyardgrass: flooded paddy test, scale 0 to 100 (0 no effect, 100 complete control)
How it was run: (§2)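 Flooded paddy, 2-leaf stage at treatment. Readout: visual % control vs untreated, 0–100, at 12–14 d in greenhouse.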

[26] = test system: duck salad (Heteranthera limosa); test: Test C flooded paddy test; settings: for Ducksalad plant response rating: Flooded Paddy, scale 0 to 100, 0 no effect, 100 complete control; for Plant response rating, Ducksalad: flooded paddy test, scale 0 to 100 (0 no effect, 100 complete control)
How it was run: as §2

[27] = test system: rice (Oryza saliva); test: Test C flooded paddy test; settings: for Rice plant response rating: Flooded Paddy, scale 0 to 100, 0 no effect, 100 complete control; for Plant response rating, Rice: flooded paddy test, scale 0 to 100 (0 no effect, 100 complete control)
How it was run: as §2

[28] = test system: smallflower flatsedge (Cyperus difformis); test: Test C flooded paddy test; settings: for Flatsedge plant response rating: Flooded Paddy, scale 0 to 100, 0 no effect, 100 complete control; for Plant response rating, Flatsedge: flooded paddy test, scale 0 to 100 (0 no effect, 100 complete control)
How it was run: as §2

[29] = Rate 125 g/ha, scale 0 to 100, 0 no effect, 100 complete control
[30] = Rate 500 g/ha, scale 0 to 100, 0 is no effect, 100 is complete control, 13 to 15 days
[31] = Preemergence, Rate 500 g/ha, scale 0 to 100, 0 no effect, 100 complete control
[32] = preemergence, Rate 125 g/ha, scale of 0 to 100 where 0 is no effect and 100 is complete control, 13 to 15 days

CCCCC(CCCC)c1ccn(C2OCN(c3cccc(OC(F)(F)F)c3)C2=O)n1 (centres unmarked) [Compound 113]
Plant response rating, Surinam grass [1, 29]: 0
Plant response rating, Surinam grass [1, 30]: 0
Plant response rating, Barnyardgrass [2, 29]: 0
Plant response rating, Barnyardgrass [2, 30]: 0
Plant response rating, Blackgrass [3, 29]: 0
Plant response rating, Blackgrass [3, 30]: 0
Plant response rating, Cocklebur [4, 29]: 0
Plant response rating, Cocklebur [4, 30]: 70
Plant response rating, Corn [5, 29]: 0
Plant response rating, Corn [5, 30]: 0
Plant response rating, Crabgrass [6, 29]: 40
Plant response rating, Crabgrass [6, 30]: 40
Plant response rating, Foxtail, Giant [7, 29]: 0
Plant response rating, Foxtail, Giant [7, 30]: 20
Plant response rating, Lambsquarters [8, 29]: 30
Plant response rating, Lambsquarters [8, 30]: 100
Plant response rating, Morningglory [9, 29]: 0
Plant response rating, Morningglory [9, 30]: 30
Plant response rating, Pigweed [10, 29]: 100
Plant response rating, Pigweed [10, 30]: 100
Plant response rating, Velvetleaf [11, 29]: 0
Plant response rating, Velvetleaf [11, 30]: 0
Plant response rating, Wheat [12, 29]: 30
Plant response rating, Wheat [12, 30]: 30
Plant response rating, Wild Oat [13, 29]: 40
Plant response rating, Wild Oat [13, 30]: 40
Plant response rating, Surinam grass [14, 31]: 0
Plant response rating, Surinam grass [14, 32]: 0
Plant response rating, Barnyardgrass [15, 31]: 0
Plant response rating, Barnyardgrass [15, 32]: 0
Plant response rating, Cocklebur [16, 31]: 0
Plant response rating, Cocklebur [16, 32]: 0
Plant response rating, Corn [17, 31]: 0
Plant response rating, Corn [17, 32]: 0
Plant response rating, Crabgrass [18, 31]: 0
Plant response rating, Crabgrass [18, 32]: 0
Plant response rating, Foxtail, Giant [19, 31]: 0
Plant response rating, Foxtail, Giant [19, 32]: 0
Plant response rating, Lambsquarters [20, 31]: 0
Plant response rating, Lambsquarters [20, 32]: 0
Plant response rating, Morningglory [21, 31]: 0
Plant response rating, Morningglory [21, 32]: 0
Plant response rating, Pigweed [22, 31]: 0
Plant response rating, Pigweed [22, 32]: 0
Plant response rating, Rice [23, 31]: 0
Plant response rating, Rice [23, 32]: 0
Plant response rating, Velvetleaf [24, 31]: 0
Plant response rating, Velvetleaf [24, 32]: 0
Barnyardgrass plant response rating ([25]; Rate 250 g/ha): 0
Barnyardgrass plant response rating ([25]; Rate 500 g/ha): 0
Plant response rating, Barnyardgrass ([25]; Rate 62 g/ha): 0
Plant response rating, Barnyardgrass ([25]; Rate 125 g/ha): 0
Ducksalad plant response rating ([26]; Rate 250 g/ha): 0
Ducksalad plant response rating ([26]; Rate 500 g/ha): 0
Plant response rating, Ducksalad ([26]; Rate 62 g/ha): 0
Plant response rating, Ducksalad ([26]; Rate 125 g/ha): 0
Rice plant response rating ([27]; Rate 250 g/ha): 0
Rice plant response rating ([27]; Rate 500 g/ha): 0
Plant response rating, Rice ([27]; Rate 62 g/ha): 0
Plant response rating, Rice ([27]; Rate 125 g/ha): 0
Flatsedge plant response rating ([28]; Rate 250 g/ha): 0
Flatsedge plant response rating ([28]; Rate 500 g/ha): 0
Plant response rating, Flatsedge ([28]; Rate 62 g/ha): 0
Plant response rating, Flatsedge ([28]; Rate 125 g/ha): 0

CCCCC(CCCC)c1ccn(C2OCN(c3cccc(C(F)(F)F)c3)C2=O)n1 (centres unmarked) [Compound 114]
Plant response rating, Surinam grass [1, 29]: 30
Plant response rating, Surinam grass [1, 30]: 30
Plant response rating, Barnyardgrass [2, 29]: 0
Plant response rating, Barnyardgrass [2, 30]: 20
Plant response rating, Blackgrass [3, 29]: 0
Plant response rating, Blackgrass [3, 30]: 0
Plant response rating, Cocklebur [4, 29]: 50
Plant response rating, Cocklebur [4, 30]: 60
Plant response rating, Corn [5, 29]: 0
Plant response rating, Corn [5, 30]: 0
Plant response rating, Crabgrass [6, 29]: 20
Plant response rating, Crabgrass [6, 30]: 30
Plant response rating, Foxtail, Giant [7, 29]: 0
Plant response rating, Foxtail, Giant [7, 30]: 0
Plant response rating, Lambsquarters [8, 29]: 90
Plant response rating, Lambsquarters [8, 30]: 100
Plant response rating, Morningglory [9, 29]: 30
Plant response rating, Morningglory [9, 30]: 60
Plant response rating, Pigweed [10, 29]: 90
Plant response rating, Pigweed [10, 30]: 100
Plant response rating, Velvetleaf [11, 29]: 0
Plant response rating, Velvetleaf [11, 30]: 0
Plant response rating, Wheat [12, 29]: 20
Plant response rating, Wheat [12, 30]: 30
Plant response rating, Wild Oat [13, 29]: 30
Plant response rating, Wild Oat [13, 30]: 50
Plant response rating, Surinam grass [14, 31]: 0
Plant response rating, Surinam grass [14, 32]: 0
Plant response rating, Barnyardgrass [15, 31]: 0
Plant response rating, Barnyardgrass [15, 32]: 0
Plant response rating, Cocklebur [16, 31]: 0
Plant response rating, Cocklebur [16, 32]: 0
Plant response rating, Corn [17, 31]: 30
Plant response rating, Corn [17, 32]: 20
Plant response rating, Crabgrass [18, 31]: 0
Plant response rating, Crabgrass [18, 32]: 0
Plant response rating, Foxtail, Giant [19, 31]: 0
Plant response rating, Foxtail, Giant [19, 32]: 0
Plant response rating, Lambsquarters [20, 31]: 100
Plant response rating, Lambsquarters [20, 32]: 30
Plant response rating, Morningglory [21, 31]: 30
Plant response rating, Morningglory [21, 32]: 0
Plant response rating, Pigweed [22, 31]: 100
Plant response rating, Pigweed [22, 32]: 30
Plant response rating, Rice [23, 31]: 0
Plant response rating, Rice [23, 32]: 0
Plant response rating, Velvetleaf [24, 31]: 0
Plant response rating, Velvetleaf [24, 32]: 0
Barnyardgrass plant response rating ([25]; Rate 250 g/ha): 0
Barnyardgrass plant response rating ([25]; Rate 500 g/ha): 0
Plant response rating, Barnyardgrass ([25]; Rate 62 g/ha): 0
Plant response rating, Barnyardgrass ([25]; Rate 125 g/ha): 0
Ducksalad plant response rating ([26]; Rate 250 g/ha): 0
Ducksalad plant response rating ([26]; Rate 500 g/ha): 0
Plant response rating, Ducksalad ([26]; Rate 62 g/ha): 0
Plant response rating, Ducksalad ([26]; Rate 125 g/ha): 0
Rice plant response rating ([27]; Rate 250 g/ha): 0
Rice plant response rating ([27]; Rate 500 g/ha): 0
Plant response rating, Rice ([27]; Rate 62 g/ha): 0
Plant response rating, Rice ([27]; Rate 125 g/ha): 0
Flatsedge plant response rating ([28]; Rate 250 g/ha): 0
Flatsedge plant response rating ([28]; Rate 500 g/ha): 0
Plant response rating, Flatsedge ([28]; Rate 62 g/ha): 0
Plant response rating, Flatsedge ([28]; Rate 125 g/ha): 0
